In US20120219615A1, “Therapeutic Use of a TLR Agonist and Combination Therapy” (The Trustees of the University of Pennsylvania, priority 2010, published 2012):

Test system: G-CSF, MCP-1, MIP-1β, TNFα
Assay: Phase I clinical study: pharmacodynamic response, plasma immune mediators (MAP)
Type: in vivo
Details: human, s.c., first dose
Experimental: Study Procedures: VTX-2337 was administered weekly via subcutaneous injection on Days 1, 8, and 15 of a 28-day dosing cycle for two cycles. Using a modified Fibonacci dose-escalation scheme, successive cohorts received doses ranging from 0.1 mg/m^2 to 3.9 mg/m^2 of VTX-2337. Plasma samples were collected for pharmacokinetic analysis after the first dose of the first treatment cycle and for pharmacodynamic analyses after the first dose of the first and second treatment cycles.
To evaluate the pharmacodynamic (PD) response to VTX-2337, blood was collected at 0, 4, 8, 24 hours after subcutaneous administration of the first dose of the first cycle of VTX-2337. Plasma levels of immune mediators were quantified using the human multiple analyte panel (MAP), version 1.8 (Rules Based Medicine). […] Levels of mediators in plasma collected from 9 healthy volunteers are shown for comparison to the oncology population. […]

With CCCN(CCC)C(=O)C1=Cc2ccc(-c3ccc(C(=O)N4CCCC4)cc3)cc2N=C(N)C1 [VTX-2337, 2-amino-N,N-dipropyl-8-(4-(pyrrolidine-1-carbonyl)phenyl)-3H-benzo[b]azepine-4-carboxamide] the G-CSF plasma level (Cohort 1 (0.1 mg/m^2), 0 Hr) was 9.7 ± 1.9 pg/mL, the MCP-1 plasma level (Cohort 1 (0.1 mg/m^2), 0 Hr) was 247 ± 62.7 pg/mL and the MIP-1β plasma level (Cohort 1 (0.1 mg/m^2), 0 Hr) was 201 ± 73.8 pg/mL. It also gave a TNFα plasma level (Cohort 1 (0.1 mg/m^2), 0 Hr) of 11.4 ± 4.4 pg/mL, a G-CSF plasma level (Cohort 1 (0.1 mg/m^2), 4 Hr) of 8.6 ± 1.6 pg/mL and an MCP-1 plasma level (Cohort 1 (0.1 mg/m^2), 4 Hr) of 223 ± 58.8 pg/mL. The MIP-1β plasma level (Cohort 1 (0.1 mg/m^2), 4 Hr) was 196 ± 71.9 pg/mL, the TNFα plasma level (Cohort 1 (0.1 mg/m^2), 4 Hr) was 10.5 ± 2.6 pg/mL and the G-CSF plasma level (Cohort 1 (0.1 mg/m^2), 8 Hr) was 11.9 ± 4.4 pg/mL. The MCP-1 plasma level (Cohort 1 (0.1 mg/m^2), 8 Hr) was 280 ± 97.0 pg/mL, the MIP-1β plasma level (Cohort 1 (0.1 mg/m^2), 8 Hr) was 204 ± 74.0 pg/mL and the TNFα plasma level (Cohort 1 (0.1 mg/m^2), 8 Hr) was 10.3 ± 4.0 pg/mL. For the same molecule, the G-CSF plasma level (Cohort 1 (0.1 mg/m^2), 24 Hr) was 9.2 ± 2.5 pg/mL, the MCP-1 plasma level (Cohort 1 (0.1 mg/m^2), 24 Hr) was 250 ± 85.0 pg/mL and the MIP-1β plasma level (Cohort 1 (0.1 mg/m^2), 24 Hr) was 207 ± 73.8 pg/mL. For the same molecule, the TNFα plasma level (Cohort 1 (0.1 mg/m^2), 24 Hr) was 10.2 ± 3.6 pg/mL, the G-CSF plasma level (Cohort 2 (0.2 mg/m^2), 0 Hr) was 7.8 ± 3.2 pg/mL and the MCP-1 plasma level (Cohort 2 (0.2 mg/m^2), 0 Hr) was 245 ± 167 pg/mL. It also gave an MIP-1β plasma level (Cohort 2 (0.2 mg/m^2), 0 Hr) of 230 ± 84.0 pg/mL, a TNFα plasma level (Cohort 2 (0.2 mg/m^2), 0 Hr) of 9.7 ± 5.7 pg/mL and a G-CSF plasma level (Cohort 2 (0.2 mg/m^2), 4 Hr) of 11.5 ± 7.8 pg/mL. The MCP-1 plasma level (Cohort 2 (0.2 mg/m^2), 4 Hr) was 235 ± 84.6 pg/mL, the MIP-1β plasma level (Cohort 2 (0.2 mg/m^2), 4 Hr) was 239 ± 74.0 pg/mL and the TNFα plasma level (Cohort 2 (0.2 mg/m^2), 4 Hr) was 10.8 ± 5.0 pg/mL. For the same molecule, the G-CSF plasma level (Cohort 2 (0.2 mg/m^2), 8 Hr) was 19.0 ± 16.5 pg/mL, the MCP-1 plasma level (Cohort 2 (0.2 mg/m^2), 8 Hr) was 298 ± 100 pg/mL and the MIP-1β plasma level (Cohort 2 (0.2 mg/m^2), 8 Hr) was 247 ± 84.7 pg/mL. It also gave a TNFα plasma level (Cohort 2 (0.2 mg/m^2), 8 Hr) of 10.5 ± 6.0 pg/mL, a G-CSF plasma level (Cohort 2 (0.2 mg/m^2), 24 Hr) of 15.4 ± 9.0 pg/mL and an MCP-1 plasma level (Cohort 2 (0.2 mg/m^2), 24 Hr) of 301 ± 159 pg/mL. For the same molecule, the MIP-1β plasma level (Cohort 2 (0.2 mg/m^2), 24 Hr) was 280 ± 115 pg/mL, the TNFα plasma level (Cohort 2 (0.2 mg/m^2), 24 Hr) was 12.4 ± 6.1 pg/mL and the G-CSF plasma level (Cohort 3 (0.4 mg/m^2), 0 Hr) was 12.7 ± 6.0 pg/mL. It also gave an MCP-1 plasma level (Cohort 3 (0.4 mg/m^2), 0 Hr) of 129 ± 30.0 pg/mL, an MIP-1β plasma level (Cohort 3 (0.4 mg/m^2), 0 Hr) of 172 ± 59.0 pg/mL and a TNFα plasma level (Cohort 3 (0.4 mg/m^2), 0 Hr) of 9.0 ± 4.9 pg/mL. It also gave a G-CSF plasma level (Cohort 3 (0.4 mg/m^2), 4 Hr) of 9.5 ± 0.9 pg/mL, an MCP-1 plasma level (Cohort 3 (0.4 mg/m^2), 4 Hr) of 137 ± 30.7 pg/mL and an MIP-1β plasma level (Cohort 3 (0.4 mg/m^2), 4 Hr) of 215 ± 65.6 pg/mL. The TNFα plasma level (Cohort 3 (0.4 mg/m^2), 4 Hr) was 10.8 ± 3.3 pg/mL, the G-CSF plasma level (Cohort 3 (0.4 mg/m^2), 8 Hr) was 63.8 ± 60.1 pg/mL and the MCP-1 plasma level (Cohort 3 (0.4 mg/m^2), 8 Hr) was 251 ± 87.9 pg/mL. For the same molecule, the MIP-1β plasma level (Cohort 3 (0.4 mg/m^2), 8 Hr) was 213 ± 88.8 pg/mL, the TNFα plasma level (Cohort 3 (0.4 mg/m^2), 8 Hr) was 9.6 ± 3.1 pg/mL and the G-CSF plasma level (Cohort 3 (0.4 mg/m^2), 24 Hr) was 15.8 ± 3.5 pg/mL. For the same molecule, the MCP-1 plasma level (Cohort 3 (0.4 mg/m^2), 24 Hr) was 99.5 ± 6.9 pg/mL, the MIP-1β plasma level (Cohort 3 (0.4 mg/m^2), 24 Hr) was 173 ± 67.4 pg/mL and the TNFα plasma level (Cohort 3 (0.4 mg/m^2), 24 Hr) was 10.0 ± 2.9 pg/mL. It also gave a G-CSF plasma level (Cohort 4 (0.8 mg/m^2), 0 Hr) of 13.2 ± 8.9 pg/mL, an MCP-1 plasma level (Cohort 4 (0.8 mg/m^2), 0 Hr) of 260 ± 150 pg/mL and an MIP-1β plasma level (Cohort 4 (0.8 mg/m^2), 0 Hr) of 165 ± 63.9 pg/mL. For the same molecule, the TNFα plasma level (Cohort 4 (0.8 mg/m^2), 0 Hr) was 16.7 ± 12.6 pg/mL, the G-CSF plasma level (Cohort 4 (0.8 mg/m^2), 4 Hr) was 49.8 ± 80.3 pg/mL and the MCP-1 plasma level (Cohort 4 (0.8 mg/m^2), 4 Hr) was 1037 ± 1920 pg/mL. For the same molecule, the MIP-1β plasma level (Cohort 4 (0.8 mg/m^2), 4 Hr) was 450 ± 641 pg/mL, the TNFα plasma level (Cohort 4 (0.8 mg/m^2), 4 Hr) was 22.0 ± 14.6 pg/mL and the G-CSF plasma level (Cohort 4 (0.8 mg/m^2), 8 Hr) was 137 ± 124 pg/mL. The MCP-1 plasma level (Cohort 4 (0.8 mg/m^2), 8 Hr) was 673 ± 386 pg/mL, the MIP-1β plasma level (Cohort 4 (0.8 mg/m^2), 8 Hr) was 287 ± 177 pg/mL and the TNFα plasma level (Cohort 4 (0.8 mg/m^2), 8 Hr) was 19.0 ± 10.6 pg/mL. For the same molecule, the G-CSF plasma level (Cohort 4 (0.8 mg/m^2), 24 Hr) was 35.7 ± 14.7 pg/mL, the MCP-1 plasma level (Cohort 4 (0.8 mg/m^2), 24 Hr) was 267 ± 104 pg/mL and the MIP-1β plasma level (Cohort 4 (0.8 mg/m^2), 24 Hr) was 183 ± 55.9 pg/mL. For the same molecule, the TNFα plasma level (Cohort 4 (0.8 mg/m^2), 24 Hr) was 17.5 ± 8.7 pg/mL.
